The source of these data is ChEMBL document CHEMBL5291721, “A preclinical secondary pharmacology resource illuminates target-adverse drug reaction associations of marketed drugs” (Nat Commun, 2023).

Assay [1] concerns the target Sodium-dependent noradrenaline transporter (Homo sapiens, UniProt P23975).
Assay [2] has as its target Gamma-aminobutyric acid receptor subunit alpha-1 (Rattus norvegicus, UniProt P62813).
Assay [3] has as its target T1, Muscarinic acetylcholine receptor M2 (Homo sapiens, UniProt P08172).
T1 sequence (P08172 whole entry): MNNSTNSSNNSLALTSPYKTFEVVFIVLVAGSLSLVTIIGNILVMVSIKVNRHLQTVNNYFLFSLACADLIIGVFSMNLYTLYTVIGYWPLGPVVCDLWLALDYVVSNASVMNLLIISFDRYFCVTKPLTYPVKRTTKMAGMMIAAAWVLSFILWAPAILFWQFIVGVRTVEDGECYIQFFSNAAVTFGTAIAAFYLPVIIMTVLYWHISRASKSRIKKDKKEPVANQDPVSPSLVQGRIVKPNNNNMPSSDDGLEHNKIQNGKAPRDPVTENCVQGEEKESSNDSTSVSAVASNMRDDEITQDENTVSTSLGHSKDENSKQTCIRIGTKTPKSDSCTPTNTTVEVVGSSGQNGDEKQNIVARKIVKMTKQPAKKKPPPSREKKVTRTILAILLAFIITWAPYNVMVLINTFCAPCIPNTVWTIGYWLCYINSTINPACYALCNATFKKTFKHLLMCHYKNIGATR
Format: functional, cell-based.

The target of assay [4] is Voltage-dependent L-type calcium channel subunit alpha-1C (Rattus norvegicus, UniProt P22002). Format: functional.
Voltage-dependent L-type calcium channel subunit alpha-1C, sequence (P22002 whole entry): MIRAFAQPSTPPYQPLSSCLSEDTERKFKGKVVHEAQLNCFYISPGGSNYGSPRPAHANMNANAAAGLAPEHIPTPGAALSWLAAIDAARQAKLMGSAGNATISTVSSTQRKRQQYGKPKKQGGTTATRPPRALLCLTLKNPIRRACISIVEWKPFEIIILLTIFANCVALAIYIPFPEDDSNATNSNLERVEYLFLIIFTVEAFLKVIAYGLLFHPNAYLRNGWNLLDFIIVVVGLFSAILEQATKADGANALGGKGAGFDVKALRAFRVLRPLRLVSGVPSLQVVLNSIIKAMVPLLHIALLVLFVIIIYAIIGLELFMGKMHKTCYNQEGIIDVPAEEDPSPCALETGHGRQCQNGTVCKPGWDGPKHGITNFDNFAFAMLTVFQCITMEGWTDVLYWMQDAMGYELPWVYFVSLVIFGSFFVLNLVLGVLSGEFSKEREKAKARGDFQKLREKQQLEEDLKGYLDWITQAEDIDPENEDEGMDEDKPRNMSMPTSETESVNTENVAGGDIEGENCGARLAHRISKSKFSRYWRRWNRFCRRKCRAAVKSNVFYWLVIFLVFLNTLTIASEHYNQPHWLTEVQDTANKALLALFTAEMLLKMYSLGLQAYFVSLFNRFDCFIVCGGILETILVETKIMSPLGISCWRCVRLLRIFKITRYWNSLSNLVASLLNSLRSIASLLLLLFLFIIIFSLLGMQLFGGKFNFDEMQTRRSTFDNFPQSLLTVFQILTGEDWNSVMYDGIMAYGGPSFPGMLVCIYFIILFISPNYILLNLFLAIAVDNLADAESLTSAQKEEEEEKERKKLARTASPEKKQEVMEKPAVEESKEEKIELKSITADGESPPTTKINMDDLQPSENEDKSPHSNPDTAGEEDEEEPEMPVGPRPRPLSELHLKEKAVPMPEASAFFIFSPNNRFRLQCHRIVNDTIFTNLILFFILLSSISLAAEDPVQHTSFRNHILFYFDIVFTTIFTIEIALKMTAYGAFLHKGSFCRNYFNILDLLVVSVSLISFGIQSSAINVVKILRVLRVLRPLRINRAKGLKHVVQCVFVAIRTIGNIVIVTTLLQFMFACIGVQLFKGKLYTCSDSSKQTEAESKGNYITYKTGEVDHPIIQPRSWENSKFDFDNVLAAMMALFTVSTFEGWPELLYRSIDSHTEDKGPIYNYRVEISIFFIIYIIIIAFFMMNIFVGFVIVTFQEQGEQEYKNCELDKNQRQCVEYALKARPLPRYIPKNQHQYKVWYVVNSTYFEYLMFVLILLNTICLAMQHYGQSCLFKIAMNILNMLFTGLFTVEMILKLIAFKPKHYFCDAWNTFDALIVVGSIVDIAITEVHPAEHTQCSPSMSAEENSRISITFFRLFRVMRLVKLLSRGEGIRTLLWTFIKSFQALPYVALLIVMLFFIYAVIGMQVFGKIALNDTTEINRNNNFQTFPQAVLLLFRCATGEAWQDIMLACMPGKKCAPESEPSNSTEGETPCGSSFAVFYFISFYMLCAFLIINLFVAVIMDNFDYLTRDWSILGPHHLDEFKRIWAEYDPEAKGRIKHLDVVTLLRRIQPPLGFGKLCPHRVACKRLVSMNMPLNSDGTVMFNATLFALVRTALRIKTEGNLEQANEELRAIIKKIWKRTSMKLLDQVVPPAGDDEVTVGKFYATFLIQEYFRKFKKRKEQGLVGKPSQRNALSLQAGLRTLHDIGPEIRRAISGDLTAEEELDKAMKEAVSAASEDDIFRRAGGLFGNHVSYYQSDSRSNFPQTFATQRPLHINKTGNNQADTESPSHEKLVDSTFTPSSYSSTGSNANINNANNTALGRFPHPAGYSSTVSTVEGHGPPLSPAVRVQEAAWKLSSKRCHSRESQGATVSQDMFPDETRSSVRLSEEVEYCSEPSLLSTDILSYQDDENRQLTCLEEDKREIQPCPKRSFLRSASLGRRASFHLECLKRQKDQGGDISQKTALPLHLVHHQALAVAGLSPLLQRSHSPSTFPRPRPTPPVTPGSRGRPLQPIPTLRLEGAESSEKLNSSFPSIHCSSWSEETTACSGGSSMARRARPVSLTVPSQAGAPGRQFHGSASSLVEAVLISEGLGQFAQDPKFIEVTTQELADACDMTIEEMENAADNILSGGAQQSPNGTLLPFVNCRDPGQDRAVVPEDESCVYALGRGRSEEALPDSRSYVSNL
Assay [5] concerns the target T1, Muscarinic acetylcholine receptor M2. The format is functional, cell-based. The source holds these as a separate data set.
Assay [6] concerns the target T2, Prostaglandin G/H synthase 1 (Rattus norvegicus, UniProt Q63921).
T2 sequence (Q63921 whole entry): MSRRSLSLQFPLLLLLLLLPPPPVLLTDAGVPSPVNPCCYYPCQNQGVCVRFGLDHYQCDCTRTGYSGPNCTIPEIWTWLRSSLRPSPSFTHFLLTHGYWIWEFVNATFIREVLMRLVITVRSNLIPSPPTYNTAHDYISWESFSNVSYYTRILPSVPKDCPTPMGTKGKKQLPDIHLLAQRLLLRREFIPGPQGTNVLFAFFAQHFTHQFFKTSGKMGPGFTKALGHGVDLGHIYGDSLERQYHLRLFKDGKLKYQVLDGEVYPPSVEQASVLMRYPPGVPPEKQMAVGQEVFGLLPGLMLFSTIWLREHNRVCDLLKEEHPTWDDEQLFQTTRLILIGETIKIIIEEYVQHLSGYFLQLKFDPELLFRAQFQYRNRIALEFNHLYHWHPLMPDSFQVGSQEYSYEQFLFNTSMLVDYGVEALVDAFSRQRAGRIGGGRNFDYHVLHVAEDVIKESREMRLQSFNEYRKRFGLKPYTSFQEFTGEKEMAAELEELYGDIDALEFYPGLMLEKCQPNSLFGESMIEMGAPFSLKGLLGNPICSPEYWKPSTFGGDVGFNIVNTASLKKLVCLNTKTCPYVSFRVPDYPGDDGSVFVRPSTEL
Format: functional.

In the next assay the target is T3, Progesterone receptor (Homo sapiens, UniProt P06401).
T3 sequence (P06401 whole entry): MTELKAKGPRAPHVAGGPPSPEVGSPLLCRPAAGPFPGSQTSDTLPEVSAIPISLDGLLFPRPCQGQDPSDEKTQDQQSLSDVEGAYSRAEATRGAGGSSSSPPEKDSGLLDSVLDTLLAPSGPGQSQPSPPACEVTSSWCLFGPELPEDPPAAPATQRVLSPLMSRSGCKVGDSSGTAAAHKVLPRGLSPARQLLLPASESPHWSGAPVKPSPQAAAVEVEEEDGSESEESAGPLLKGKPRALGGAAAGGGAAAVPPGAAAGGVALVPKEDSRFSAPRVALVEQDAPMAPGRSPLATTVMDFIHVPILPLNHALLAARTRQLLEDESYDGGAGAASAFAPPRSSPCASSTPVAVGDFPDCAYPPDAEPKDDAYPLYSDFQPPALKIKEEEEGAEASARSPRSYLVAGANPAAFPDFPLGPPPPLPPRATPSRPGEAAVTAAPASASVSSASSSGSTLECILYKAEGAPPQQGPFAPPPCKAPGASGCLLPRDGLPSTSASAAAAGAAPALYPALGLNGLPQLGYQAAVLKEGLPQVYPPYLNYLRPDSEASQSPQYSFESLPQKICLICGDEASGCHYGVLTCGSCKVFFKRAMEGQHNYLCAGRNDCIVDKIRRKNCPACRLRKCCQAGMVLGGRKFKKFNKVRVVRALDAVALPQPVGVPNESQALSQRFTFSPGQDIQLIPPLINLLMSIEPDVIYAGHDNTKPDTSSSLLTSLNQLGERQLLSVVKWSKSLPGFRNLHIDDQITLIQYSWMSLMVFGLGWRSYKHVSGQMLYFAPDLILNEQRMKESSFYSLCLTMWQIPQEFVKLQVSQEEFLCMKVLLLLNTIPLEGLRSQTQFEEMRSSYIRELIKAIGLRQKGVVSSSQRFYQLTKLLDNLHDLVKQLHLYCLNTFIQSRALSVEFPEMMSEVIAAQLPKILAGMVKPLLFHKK
The format is functional.

Assay [7] deals with Delta-type opioid receptor (Homo sapiens, UniProt P41143).
Delta-type opioid receptor, sequence (P41143 whole entry): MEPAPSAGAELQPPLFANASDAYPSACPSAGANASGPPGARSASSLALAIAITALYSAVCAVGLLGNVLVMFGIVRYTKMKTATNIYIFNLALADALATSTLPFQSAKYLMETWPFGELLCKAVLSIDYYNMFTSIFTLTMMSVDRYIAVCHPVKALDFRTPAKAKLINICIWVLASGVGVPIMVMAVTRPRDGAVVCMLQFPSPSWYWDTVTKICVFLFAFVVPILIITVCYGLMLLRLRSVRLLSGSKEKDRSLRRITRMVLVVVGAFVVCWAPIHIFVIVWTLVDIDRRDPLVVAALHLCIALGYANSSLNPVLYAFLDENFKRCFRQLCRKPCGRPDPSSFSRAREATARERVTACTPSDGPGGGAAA
Assay [8] addresses Beta-2 adrenergic receptor (Homo sapiens, UniProt P07550).
The target of assay [9] is 3',5'-cyclic-AMP phosphodiesterase 4D (Homo sapiens, UniProt Q08499). Format: functional.
3',5'-cyclic-AMP phosphodiesterase 4D, sequence (Q08499 whole entry): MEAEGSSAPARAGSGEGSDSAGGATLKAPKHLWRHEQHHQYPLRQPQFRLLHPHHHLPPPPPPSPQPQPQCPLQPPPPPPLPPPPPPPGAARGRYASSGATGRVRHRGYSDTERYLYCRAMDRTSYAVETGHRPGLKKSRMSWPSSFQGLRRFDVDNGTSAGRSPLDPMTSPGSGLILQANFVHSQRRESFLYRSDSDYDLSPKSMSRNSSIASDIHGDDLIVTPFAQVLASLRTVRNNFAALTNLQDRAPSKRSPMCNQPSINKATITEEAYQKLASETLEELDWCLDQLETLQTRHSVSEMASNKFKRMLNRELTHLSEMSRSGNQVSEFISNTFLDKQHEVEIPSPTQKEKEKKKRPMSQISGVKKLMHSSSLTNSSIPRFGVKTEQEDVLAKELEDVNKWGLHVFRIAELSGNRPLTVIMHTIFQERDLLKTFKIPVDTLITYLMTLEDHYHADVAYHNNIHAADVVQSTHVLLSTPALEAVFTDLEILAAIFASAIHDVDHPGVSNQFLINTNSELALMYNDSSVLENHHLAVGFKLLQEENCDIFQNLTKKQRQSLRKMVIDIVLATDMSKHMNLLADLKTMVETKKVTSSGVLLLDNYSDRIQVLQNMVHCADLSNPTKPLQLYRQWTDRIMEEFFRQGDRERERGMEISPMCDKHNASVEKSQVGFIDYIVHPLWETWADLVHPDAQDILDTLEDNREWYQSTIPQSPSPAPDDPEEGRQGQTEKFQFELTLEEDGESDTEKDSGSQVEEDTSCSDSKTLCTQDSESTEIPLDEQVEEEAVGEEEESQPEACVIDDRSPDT
Assay [10] addresses T4, 5-hydroxytryptamine receptor 2C (Homo sapiens, UniProt P28335).
T4 sequence (P28335 whole entry): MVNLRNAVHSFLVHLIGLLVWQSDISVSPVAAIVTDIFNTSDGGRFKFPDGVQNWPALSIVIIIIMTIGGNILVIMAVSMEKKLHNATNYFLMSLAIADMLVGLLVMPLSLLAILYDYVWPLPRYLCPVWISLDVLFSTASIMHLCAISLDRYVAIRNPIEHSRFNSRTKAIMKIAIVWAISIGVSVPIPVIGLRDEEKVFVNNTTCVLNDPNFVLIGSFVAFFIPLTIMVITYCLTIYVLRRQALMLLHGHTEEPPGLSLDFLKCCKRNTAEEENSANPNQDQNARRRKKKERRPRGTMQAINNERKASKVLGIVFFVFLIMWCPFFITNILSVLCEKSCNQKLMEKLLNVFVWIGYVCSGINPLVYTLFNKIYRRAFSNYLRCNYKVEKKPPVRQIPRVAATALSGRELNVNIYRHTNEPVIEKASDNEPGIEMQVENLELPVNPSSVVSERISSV

The target in assay [11] is 5-hydroxytryptamine receptor 2B (Homo sapiens, UniProt P41595). The format is functional, cell-based.
5-hydroxytryptamine receptor 2B, sequence (P41595 whole entry): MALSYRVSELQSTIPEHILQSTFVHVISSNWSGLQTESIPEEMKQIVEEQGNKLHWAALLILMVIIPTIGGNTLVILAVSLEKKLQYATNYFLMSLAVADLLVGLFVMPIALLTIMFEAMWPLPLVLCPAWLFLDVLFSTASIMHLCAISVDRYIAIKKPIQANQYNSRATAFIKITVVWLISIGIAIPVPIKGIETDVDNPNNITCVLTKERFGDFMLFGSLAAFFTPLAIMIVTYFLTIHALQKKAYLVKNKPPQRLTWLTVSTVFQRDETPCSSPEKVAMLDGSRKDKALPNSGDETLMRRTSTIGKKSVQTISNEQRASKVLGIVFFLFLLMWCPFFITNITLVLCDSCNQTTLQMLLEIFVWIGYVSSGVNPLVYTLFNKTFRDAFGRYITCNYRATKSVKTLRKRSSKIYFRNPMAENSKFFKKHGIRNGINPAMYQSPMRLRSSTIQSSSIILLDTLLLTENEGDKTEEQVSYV
Note: assay procedure not described here.

Gamma-aminobutyric acid receptor subunit alpha-1, sequence (P62813 whole entry): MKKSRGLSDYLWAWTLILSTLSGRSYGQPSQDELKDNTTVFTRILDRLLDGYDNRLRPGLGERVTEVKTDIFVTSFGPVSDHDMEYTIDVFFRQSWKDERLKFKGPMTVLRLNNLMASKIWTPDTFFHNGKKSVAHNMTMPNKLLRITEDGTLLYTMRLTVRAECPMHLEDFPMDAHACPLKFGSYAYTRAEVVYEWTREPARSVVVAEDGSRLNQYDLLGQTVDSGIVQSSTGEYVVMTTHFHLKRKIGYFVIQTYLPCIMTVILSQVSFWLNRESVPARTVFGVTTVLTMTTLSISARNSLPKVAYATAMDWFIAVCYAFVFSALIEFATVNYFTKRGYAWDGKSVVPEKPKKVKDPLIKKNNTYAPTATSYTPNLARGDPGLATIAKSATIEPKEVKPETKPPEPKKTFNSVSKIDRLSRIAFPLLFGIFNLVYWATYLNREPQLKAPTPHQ
Sodium-dependent noradrenaline transporter, sequence (P23975 whole entry): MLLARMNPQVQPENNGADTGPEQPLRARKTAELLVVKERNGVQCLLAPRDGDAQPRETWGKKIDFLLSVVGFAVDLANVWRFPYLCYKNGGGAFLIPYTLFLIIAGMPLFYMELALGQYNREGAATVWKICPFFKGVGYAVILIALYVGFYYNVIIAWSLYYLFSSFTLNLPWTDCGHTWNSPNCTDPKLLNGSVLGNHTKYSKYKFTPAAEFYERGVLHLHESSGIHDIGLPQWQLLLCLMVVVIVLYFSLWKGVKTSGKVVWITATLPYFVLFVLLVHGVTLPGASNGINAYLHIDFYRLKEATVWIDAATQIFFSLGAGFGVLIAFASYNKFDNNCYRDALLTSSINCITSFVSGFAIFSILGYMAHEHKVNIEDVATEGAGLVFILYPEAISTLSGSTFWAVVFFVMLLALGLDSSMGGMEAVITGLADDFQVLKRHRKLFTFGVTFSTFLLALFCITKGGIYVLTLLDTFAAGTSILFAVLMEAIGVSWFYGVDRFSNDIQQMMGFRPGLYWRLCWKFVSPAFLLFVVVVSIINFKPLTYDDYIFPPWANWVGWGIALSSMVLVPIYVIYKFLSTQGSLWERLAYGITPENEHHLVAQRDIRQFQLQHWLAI

As for `NC(=O)NC(=O)Cc1ccccc1` [PHENACEMIDE], the AC50 in assay [1], in assay [2], in [3], in assay [4], in [5] and in [6] was more than 10 µM in each case. In addition, the AC50 is more than 10 µM at Progesterone receptor; more than 30 µM in assay [7]; more than 10 µM in assay [8]; more than 30 µM in assay [9]; more than 30 µM in assay [10]; more than 10 µM in assay [11].
Regarding `CCCN1CCCC[C@H]1C(=O)Nc1c(C)cccc1C` [ROPIVACAINE], the AC50 in assay [1], in assay [2], in assay [3], in assay [4], in assay [5] and in assay [6] was more than 30 µM throughout. Moreover, the AC50 (at Progesterone receptor; in [7]; in assay [8]; in assay [9]; in assay [10]; in assay [11]) was more than 30 µM throughout.
As for `O=C(O)c1ccc(NC(=O)[C@H](Cc2ccc(O)cc2)NC(=O)c2ccccc2)cc1` [BENTIROMIDE], the AC50 in [1], in assay [2], in assay [3], in assay [4], in assay [5] and in assay [6] was more than 10 µM throughout. Besides, the AC50 is more than 10 µM at Progesterone receptor; more than 30 µM in [7]; more than 10 µM in assay [8]; more than 30 µM in assay [9]; more than 30 µM in assay [10]; more than 10 µM in assay [11].
Turning to `CC(C)[C@@H](C)/C=C/[C@@H](C)[C@H]1CC[C@H]2/C(=C/C=C3\C[C@@H](O)CC[C@@H]3C)CCC[C@]12C` [DIHYDROTACHYSTEROL], the AC50 in assay [1], in [2], in [3], in assay [4], in [5] and in [6] was more than 10 µM each time. In addition, the AC50 on Progesterone receptor was 11.2 µM; in [7], more than 30 µM; in assay [8], more than 10 µM; in assay [9], more than 30 µM; in assay [10], more than 30 µM; in assay [11], more than 10 µM.
In the case of `CCC1(CCC(C)C)C(=O)NC(=O)NC1=O` [AMOBARBITAL], the AC50 in assay [1], in assay [2], in [3], in assay [4], in assay [5] and in [6] was more than 10 µM each time. Moreover, the concentration at half-maximal activity (AC50) was more than 10 µM at Progesterone receptor; more than 30 µM in assay [7]; more than 10 µM in assay [8]; more than 30 µM in assay [9]; more than 30 µM in assay [10]; more than 10 µM in assay [11].
As for `O=C(O)CCNC(=O)c1ccc(/N=N/c2ccc(O)c(C(=O)O)c2)cc1` [BALSALAZIDE], the AC50 in assay [1], in assay [2], in [3], in assay [4], in assay [5] and in assay [6] was more than 30 µM each time. The AC50 (on Progesterone receptor; in assay [7]; in [8]; in assay [9]; in assay [10]; in [11]) was more than 30 µM in each case.
As for `Cc1cc(C)nc(NS(=O)(=O)c2ccc(N)cc2)n1` [SULFAMETHAZINE], the AC50 in assay [1], in assay [2], in assay [3], in assay [4], in assay [5] and in assay [6] was more than 10 µM throughout. In addition, the AC50 at Progesterone receptor is more than 10 µM; in assay [7], more than 30 µM; in assay [8], more than 10 µM; in [9] it was more than 30 µM; in assay [10], more than 30 µM; in [11] it was more than 10 µM.

As usually defined, the AC50 is the midpoint of the concentration-response curve, whichever way the signal moves.
